Source: US20080306002A1, “Combination Therapy for Preventing Angiogenesis” (The General Hospital Corporation, priority 2005, published 2008)

Assays:
IL-8 = IL-8 mRNA (qRT-PCR) in parental DLD-1 cells given t-butyl hydroperoxide; format: cell-based
Method: Real-time PCR assay. RNA was extracted using the RNeasy kit (Qiagen) and quantitative reverse-transcription PCR was performed using the SuperScript III platinum Two-Step qRT-PCR Kit (Invitrogen). Primer sequences for VEGF, IL-8, and 18S RNA are available upon request. A fluorogenic SYBR Green and MJ research detection system were used for real time quantification.
Hydrogen peroxide studies. Measurement of H2O2 was performed using the Amplex Red Hydrogen peroxide Assay Kit and the CM-H2DCFDA reagent (both Molecular Probe). Cells were exposed to hypoxia for 10 h, and then culture medium was switched to Krebs-Ringer phosphate buffer^30 containing 100 μM Amplex Red reagent and 0.2 U/mL HRP. After additional incubation in hypoxia for 1 h, fluorescence was measured in 96-well plates by Spectra MAX GEMINI XS microplate fluorometer (Molecure Devices). Cells were also incubated with 10 μM CM-H2DCFDA for 30 minutes in RPMI without phenol red. Fluorescence was measured in 96 well plates and values were normalized to cell number. 20 or 40 μM t-butyl hydroperoxide (t-BH, Sigma) was added to the culture media of DLD-1 cells every 30 minutes for 6 hours, and IL-8 mRNA levels were measured by qRT-PCR.

NF-κB = NF-κB reporter assay in DLD-1^HIF-kd cells in hypoxia; format: cell-based
Method: Cell lines. DLD-1 and Caco2 cells (ATCC) were stably transfected with HIF-1α siRNA constructs (pSuper.retro, OligoEngine), pSR.HIF-1α1470 or pSR.HIF-1α2192^10. […] Transient transfections were performed using Lipofectamine 2000 (Invitrogen).
(§1) Transfections and Reporter Assays. 0.1-0.2 μg reporter constructs were co-transfected with 2 ng of pRL-CMV (Promega) and luciferase activity was measured with the Dual Luciferase Reporter Assay System (Promega). pRL-null, a promoter-less Renilla construct, was used when cells were co-transfected with a K-ras expression vector^29. The relative luciferase activity was calculated as Firefly/Renilla luciferase activity. The level of ‘hypoxic induction’ was the ratio between the relative luciferase activity in hypoxia to that in normoxia.

VEGF = settings: plus chemotherapy vs chemotherapy alone; cited from earlier work
VEGF, sequence (P15692 207-311 limits assumed): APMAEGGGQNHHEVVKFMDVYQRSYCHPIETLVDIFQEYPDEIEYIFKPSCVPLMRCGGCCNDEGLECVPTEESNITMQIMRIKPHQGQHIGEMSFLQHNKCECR

IL8 promoter [1] = assay: IL-8 promoter reporter assay in DLD-1^HIF-kd cells in hypoxia; format: cell-based
Method: (§2) Cell lines. DLD-1 and Caco2 cells (ATCC) were stably transfected with HIF-1α siRNA constructs (pSuper.retro, OligoEngine), pSR.HIF-1α1470 or pSR.HIF-1α2192^10. […] In a pilot xenograft study, growth, microvascular density, VEGF and IL-8 levels were similar between a pSR.HIF-1α1470 clone and pSR.HIF-1α2192 clone. […] Transient transfections were performed using Lipofectamine 2000 (Invitrogen).
as §1

IL8 promoter [2] = assay: IL-8 promoter reporter assay in Caco2 cells with KRAS^V12 and hypoxia; format: cell-based
Method: as §2, §1

Molecule: CC(C)(C)OO [t-butyl hydroperoxide]
- production of IL-8 (IL-8; exogenous administration): stimulated

Molecule: C=C(C)[C@H]1Cc2c(ccc3c2O[C@@H]2COc4cc(OC)c(OC)cc4[C@@H]2C3=O)O1 [rotenone]
- induction of NF-κB promoter activity by hypoxia (NF-κB): strongly blocked

Molecule: c1ccc2c(c1)[I+]c1ccccc1-2 [diphenylene iodonium]
- induction of NF-κB promoter activity by hypoxia (NF-κB): strongly blocked

Molecule: Avastin: A monoclonal antibody to VEGF; recombinant humanized antibody (Genentech)
- survival (VEGF): greater
- time to progression (VEGF): highly significant longer

Molecule: Cc1ccc(S(=O)(=O)/C=C/C#N)cc1 [BAY 11-7082]
- hypoxic induction of the IL8 promoter (IL8 promoter [1]): significantly down-regulated
- induction of the IL8 promoter by hypoxia and KRAS^V12 (IL8 promoter [2]): blocked
- induction of IL-8 by t-butyl hydroperoxide (IL-8; 5 μM BAY 11-7082): inhibited
